In brackets after ≈: the same amount, converted by molar mass. Structures can show the parent of a compound that is named as a salt.
Experiments:
[1] = system: Comamonas terrigena B-996; experiment: Disc bio-assay of antimicrobial activity, cephaloridine equivalent units; assay type: cell-based; conditions: Comamonas-cephaloridine units per mg of the final purified preparation
Experimental: The overnight culture of Comamonas terrigena B-996 on a nutrient agar slant was suspended in nutrient broth so as to give an optical cell density of 0.040 at 610 nm.
The seed suspension was added in a 1% amount to a molten agar medium containing 0.8% Kyokuto Nutrient Broth Powder (Kyokuto Pharmaceutical Industries Co.) and 1.0% Bacto-Agar (Difco Laboratories). Seven milliliters of the seeded molten agar medium were distributed in a Petri dish (9 cm in diameter) and solidified). This is defined as a Comamonas assay plate.
An 8 mm pulp disc was usually soaked with a sample solution to be assayed, left on a clean sheet of filter paper for a sufficient time to remove the excess solution and then transferred onto an assay plate. After incubation at 35° C. for 20 hours, the diameter of the observed inhibition zone was measured and compared with standard solutions of cephaloridine. The antimicrobial activity of the antibiotic PS-5 and related compounds is expressed as cephaloridine equivalent units/ml.
As well known to those skilled in the art, the assay standard curve varies to some extent, depending on the species of the test microorganisms. […]

male ddy mice = assay type: in vivo; conditions: 500 mg/kg intraperitoneally
Experimental: An aqueous solution of the antibiotic PS-5 sodium salt was intraperitoneally administered to male ddy mice (Shizuoka) at the dose of 500 mg/kg.

[2] = Solubility of antibiotic PS-5; assay type: physicochemical; conditions: sodium salt preparation of Example 9
[3] = system: Staphylococcus aureus Smith; experiment: Therapeutic activity of antibiotic PS-5 sodium salt in infected mice; assay type: in vivo; conditions: sc; male ddy mice infected i.p. with 5×10^5 cells/mouse Staphylococcus aureus Smith; subcutaneously injected soon after infection; read-out: 50% curative dose
Text: The therapeutic activity of the antibiotic PS-5 sodium salt was studied by treating mice intraperitoneally infected with 5×10^5 cells/mouse of Staphylococcus aureus Smith. Soon after the infection, an aqueous solution of the antibiotic PS-5 sodium salt was subcutaneously injected.

[4] = system: Alcaligenes faecalis B-326; experiment: MIC by broth dilution (Table 13); assay type: cell-based; conditions: Alcaligenes faecalis, B326, 20 h
Experimental: (§1) The MIC (minimum inhibitory concentration) values of the compound were determined on various pathogenic microorganisms including several resistant strains, utilizing the broth dilution method in BRAIN HEART INFUSION BROTH `Eiken` (EIKEN CHEMICAL CO., LTD.).
(§2) The results were read after incubation at 35° C. for 20 hours. The minimum inhibitory concentration (MIC) values means the lowest concentration unit of the tritylation product of the antibiotic PS-5 was no growth of the corresponding microorganism was observed under the above described conditions. As the control antibiotics,the solutions of ampicillin and cephaloridine were prepared in BRAIN HEART INFUSION BROTH `Eiken` (pH 7.0) at a concentration of 100 μg/ml and treated same as the test compound of the present invention.

Proteus vulgaris P-5 [5] = experiment: MIC by broth dilution (Table 13); assay type: cell-based; conditions: P5, 20 h; Proteus vulgaris P-5; read-out: MIC
Experimental: as §1, §2

[6] = system: Enterobacter cloacae E-16; experiment: MIC by broth dilution (Table 13); assay type: cell-based; conditions: E16, 20 h
Experimental: as §1, §2

Proteus rettgeri P-7 = experiment: MIC by broth dilution (Table 13); assay type: cell-based; conditions: Providencia rettgeri, P7, 20 h; Proteus rettgeri P-7; read-out: MIC
Experimental: as §1, §2

Proteus mirabilis P-6 = experiment: MIC by broth dilution (Table 13); assay type: cell-based; conditions: Proteus mirabilis, P6, 20 h
Experimental: as §1, §2

[7] = system: Enterobacter aerogenes E-19; experiment: MIC by broth dilution (Table 13); assay type: cell-based; conditions: Klebsiella aerogenes, E19, 20 h
Experimental: as §1, §2

[8] = system: Streptococcus pyogenes NY-5; experiment: MIC by broth dilution (Table 13); assay type: cell-based; conditions: NY5, 20 h; Streptococcus pyogenes NY-5; read-out: MIC
Experimental: as §1, §2

[9] = system: Diplococcus pneumoniae Type III; experiment: MIC by broth dilution (Table 13); assay type: cell-based; conditions: Streptococcus pneumoniae, 20 h; Diplococcus pneumoniae Type III; read-out: MIC
Experimental: as §1, §2

Citrobacter freundii E-9 = experiment: MIC by broth dilution (Table 13); assay type: cell-based; conditions: E9, 20 h; Citrobacter freundii E-9; read-out: MIC
Experimental: as §1, §2

Serratia marcescens S-18 = experiment: MIC by broth dilution (Table 13); assay type: cell-based; conditions: S18, 20 h
Experimental: as §1, §2

[10] = system: Klebsiella pneumoniae K-2; experiment: MIC by broth dilution (Table 13); assay type: cell-based; conditions: K2, 20 h; Klebsiella pneumoniae K-2; read-out: MIC
Experimental: as §1, §2

Enterobacter sp. E-8 = experiment: MIC by broth dilution (Table 13); assay type: cell-based; conditions: SP.E8, 20 h; Enterobacter sp. E-8; read-out: MIC
Experimental: as §1, §2

Escherichia coli K12 = experiment: MIC by broth dilution (Table 13); assay type: cell-based; conditions: 20 h
Experimental: as §1, §2

Sarcina lutea S-19 = experiment: MIC by broth dilution (Table 13); assay type: cell-based; conditions: Micrococcus luteus, S19, 20 h; Sarcina lutea S-19; read-out: MIC
Experimental: as §1, §2

[11] = system: Staphylococcus aureus Smith; experiment: MIC by broth dilution (Table 13); assay type: cell-based; conditions: 20 h; Staphylococcus aureus Smith; read-out: MIC
Experimental: as §1, §2

[12] = system: Staphylococcus aureus FDA 209p; experiment: MIC by broth dilution (Table 13); assay type: cell-based; conditions: FDA209P, 20 h; Staphylococcus aureus FDA 209p; read-out: MIC
Experimental: as §1, §2

[13] = system: Pseudomonas aeruginosa P-1; experiment: MIC by broth dilution (Table 13); assay type: cell-based; conditions: P1, 20 h; Pseudomonas aeruginosa P-1; read-out: MIC
Experimental: as §1, §2

Proteus vulgaris P-5 [14] = experiment: Potentiation disc assay with cephaloridine (Table 10); assay type: cell-based; conditions: Proteus vulgaris P-5; for Inhibition zone With CER: 50 μg/ml cephaloridine in agar
Experimental: (A) Ten milliliters of molten nutrient agar containing 50 μg/ml of penicillin G or cephaloridine, 0.8% of Kyokuto Nutrient Broth Powder and 1.0% of Difco Bacto-Agar (pH 7.0) were seeded with the beta-lactam-resistant, beta-lactamase-producing microorganisms indicated in Tables 9 and 10, and poured in a 9-cm Petri dish to provide the bio-assay agar plate. On this assay plate, 8-mm pulp discs containing 25 μl each of antibiotic PS-5 solutions at the indicated concentrations were placed and incubated at 35° C. for 18 hours before reading the inhibition zones. The control assay plate was similarly prepared without penicillin G nor cephaloridine. As reference antibiotics, penicillin G, ampicillin, oxacillin and cefazolin were disc-assayed under the same conditions.

## CCC1C(=O)N2C(C(=O)O)=C(SCCNC(C)=O)CC12 (centres unmarked) [antibiotic PS-5 sodium salt]
[1]
  Specific activity: 21,000 CCU/mg
Male ddy mice
  Deaths after intraperitoneal administration: No dead was recorded
[2]
  Solubility in acetone: substantially insoluble
  Solubility in water: Soluble
[3]
  ED50: 2.45 mg/kg

## CC1(C)S[C@@H]2[C@H](NC(=O)[C@H](N)c3ccccc3)C(=O)N2[C@H]1C(=O)O [Ampicillin, ampicillin]
[4]
  MIC: 6.25 µg/mL (≈ 17.9 µM)
Proteus vulgaris P-5 [5]
  MIC: > 100 µg/mL
[6]
  MIC: > 100 µg/mL
Proteus rettgeri P-7
  MIC: 50 µg/mL (≈ 143 µM)
Proteus mirabilis P-6
  MIC: 3.13 µg/mL (≈ 8.96 µM)
[7]
  MIC: > 100 µg/mL
[8]
  MIC: 0.02 µg/mL (≈ 0.0572 µM)
[9]
  MIC: 0.04 µg/mL (≈ 0.114 µM)
Citrobacter freundii E-9
  MIC: > 100 µg/mL
Serratia marcescens S-18
  MIC: 50 µg/mL (≈ 143 µM)
[10]
  MIC: > 100 µg/mL
Enterobacter sp. E-8
  MIC: > 100 µg/mL
Escherichia coli K12
  MIC: 3.13 µg/mL (≈ 8.96 µM)
Sarcina lutea S-19
  MIC: 0.05 µg/mL (≈ 0.143 µM)
[11]
  MIC: 0.2 µg/mL (≈ 0.572 µM)
[12]
  MIC: 0.2 µg/mL (≈ 0.572 µM)
[13]
  MIC: 50 µg/mL (≈ 143 µM)
Proteus vulgaris P-5 [14]; P5, 18 h, reference antibiotic 625 μg/ml, read-out: Inhibition zone Without CER
  zone of inhibition at 625 µg/mL: 0 mm
Proteus vulgaris P-5 [14]; P5, 18 h, reference antibiotic 2,500 μg/ml, read-out: Inhibition zone Without CER
  zone of inhibition at 2500 µg/mL: 0 mm
Proteus vulgaris P-5 [14]; P5, 18 h, reference antibiotic 10,000 μg/ml, read-out: Inhibition zone Without CER
  zone of inhibition at 10000 µg/mL: 14.7 mm
Proteus vulgaris P-5 [14]; disc assay, Table 10
  Potentiation of the antimicrobial activity of cephaloridine: could not increase the antimicrobial activity of cephaloridine
Proteus vulgaris P-5 [14]; reference antibiotic 625 μg/ml
  Inhibition zone With CER: 0 mm
Proteus vulgaris P-5 [14]; reference antibiotic 2,500 μg/ml
  Inhibition zone With CER: 0 mm
Proteus vulgaris P-5 [14]; reference antibiotic 10,000 μg/ml
  Inhibition zone With CER: 12.9 mm
